Earlier results, collected in patent publication US20020032245A1, “Resinate composition” (priority 2000, published 2002).

- solubility of indomethacin in water: 14 ppm
Structure (SMILES): COc1ccc2c(c1)c(CC(=O)O)c(C)n2C(=O)c1ccc(Cl)cc1 [indomethacin]
